Measurements taken from patent US9204644B2, “Nanoparticles compositions containing polymers and anthranilic acid diamide insecticides for propagule coating” (priority 2011, dated 2015).

Tested on: 2nd instar larva of Spodoptera frugiperda
Test: Laboratory test of larval mortality on maize leaves
Assay type: in vivo

CNC(=O)c1cc(Cl)cc(C)c1NC(=O)c1cc(Br)nn1-c1ncccc1Cl [Compound 2, 3-bromo-N-[4-chloro-2-methyl-6-[(methylamino)carbonyl]phenyl]-1-(3-chloro-2-pyridinyl)-1H-pyrazole-5-carboxamide]
concentration in leaf tissue needed to achieve 100% mortality within 72 h: 0.037 micrograms per g of tissue | concentration in leaf tissue resulting in 50% mortality within 72 h: 0.033 micrograms per g of leaf tissu
